Data as given in PMC5382548 (Scientific Reports, 2015).

Assays:
[1] = test system: T-loop, a 26-mer hairpin double-stranded DNA; test: FRET melting assay, T-loop hairpin ds-DNA; format: binding; conditions: ds-DNA 0.2 μM, ligand 1 μM, K-cacodylate buffer pH 7.4, 60 mM K+
Method: Fluorescence resonance energy transfer (FRET) studies with DNA sequences labelled at the 5′ and 3′ ends, were conducted to evaluate the G4 DNA stabilizing properties of IQcs (at 0.1 to 5 μM ligand concentrations). The G4-forming sequence KRAS21R[11], together with T-loop, a 26-mer hairpin double-stranded DNA (ds-DNA) sequence were used in the first screening assay. Reproducible IQc dose-dependent melting curves (Sup. Inf.; Figure S3) and stabilization temperature (ΔTm) values were obtained (Figure 2 and Table S5).
Figure 2 FRET stabilization temperatures (ΔTm) of KRAS21R G4 and hairpin ds-DNA (T-loop) at 0.2 μM, in K-cacodylate buffer (pH = 7.4, 60 mM K^+), stabilized by IQc derivatives and TMPyP4 at 1 μM. ^a) SD ≤ 0.2°C. TEXT PRINTED IN THE PICTURE: TMPyP4: ΔTm / °C ^a) (T-Loop): 16.0; ΔTm / °C ^a) (KRAS21R): 25.1 | 3e: ΔTm / °C ^a) (T-Loop): 6.5; ΔTm / °C ^a) (KRAS21R): 22.0 | 3d: ΔTm / °C ^a) (T-Loop): 5.6; ΔTm / °C ^a) (KRAS21R): 19.9 | 2d: ΔTm / °C ^a) (T-Loop): 6.1; ΔTm / °C ^a) (KRAS21R): 15.1 | 2a: ΔTm / °C ^a) (T-Loop): 1.5; ΔTm / °C ^a) (KRAS21R): 4.4 […]
(§1) Oligonucleotide sequences were purchased from Eurofins MWG Synthesis GmbH, Germany or STAB VIDA Genomics Lab, Caparica, Lisbon, Portugal. The labelled oligonucleotides used in the FRET assays had attached the donor fluorophore FAM (6-carboxyfluorescein) and the acceptor fluorophore TAMRA (6-carboxytetramethylrhodamine): KRAS21R: 5′-FAM-[…]-TAMRA-3′; KRAS32R: 5′-FAM-[…]-TAMRA-3′; UTR-1: 5′-FAM-GCGGCGGCGGAGG-TAMRA-3′; UTR-2: 5′-FAM-[…]-TAMRA-3; T-Loop:5′-FAM-[…]-TAMRA-3′; F21T: 5′-FAM-[…]-TAMRA-3′. Non-labelled oligonucleotides were used in FRET competition assays and in the spectroscopic studies: ds26: - d(5′-CAATCGGATCGAATT CGATCCGATTG-3′); KRAS21R: 5′-[…]-3′; HT21: 5′-[…]-3′. Each oligonucleotide was initially diluted to a storage solution at 100 μM in nuclease-free water (not DEPC-treated), purchased from Ambion Applied Biosystems UK.
(§2) The ability of indolo[3,2-c]quinolines to stabilize DNA sequences was investigated using a Fluorescence Resonance Energy Transfer (FRET) assay as reported elsewhere.
Figure S3 (cont.)| Concentration-dependent (0.1, 0.5, 1, 2, 3, 4 and 5 µM) FRET melting profiles of G4 structures and T-loop DNA with indolo[3,2-c]quinoline derivatives 1a, 2a-g and 3d-j in K-cacodylate buffer (pH 7.4, 60 mM K+). […]
Table S5 | FRET stabilization temperatures (ΔTm) of G4s sequences and ds-DNA (0.2 µM) stabilized by […]

[2] = test system: F21T G4 (human telomeric sequence); test: FRET melting assay, F21T telomeric G4; format: binding; conditions: G4 0.2 μM, ligand 1 μM
Method: Two compounds 2d and 3e were selected and evaluated for their ability to stabilize the 32-mer sequence in the NHE of the human KRAS promoter (KRAS32R)[12], two G4 motifs in the 5′UTR of KRAS mRNA (UTR-1 and UTR-2)[24] and a 21-mer DNA G4 from the human telomeric sequence (F21T). The KRAS32R sequence has been described as forming two G4 structures which exist in equilibrium. One sequence folds into a G4 (Q1) with a Tm of ~55°C that is disrupted on increasing the temperature and then, the full-length 32-mer sequence folds into a new G4 (Q2, Tm of ~72°C)[13]. In our assay, the KRAS32R sequence (in the presence or absence of IQcs) folded in a single G4 structure (Tm ≈ 54°C), as shown by the single inflection for the first derivative of the FRET melting data (Sup. Inf.; Figure S4). This monophasic behaviour was also observed in the presence of TMPyP4[13].
as §1, §2

Cn1cc2c3ccccc3nc-2c2cc(Br)ccc21 [2a, 2-bromo-5-methyl-indolo[3,2-c]quinoline]
FRET stabilization temperature ΔTm (T-loop) [1]: 1.5 °C
ΔTm F21T [2]: 5.6 °C

CCN(CC)CCCNc1ccc2c(c1)c1[nH]c3ccccc3c1c[n+]2C [2d]
FRET stabilization temperature ΔTm (T-loop) [1]: 6.1 °C
ΔTm F21T [2]: 17.7 °C

CCN(CC)CCCNc1ccc2[nH]c3c(c[n+](C)c4ccc(NCCCN(CC)CC)cc34)c2c1.[Cl-] [3d]
FRET stabilization temperature ΔTm (T-loop) [1]: 5.6 °C

CCN(CC)CCCNc1ccc2c(c1)[nH]c1c2c[n+](C)c2ccc(NCCCN(CC)CC)cc12.[Cl-] [3e]
FRET stabilization temperature ΔTm (T-loop) [1]: 6.5 °C
ΔTm F21T [2]: 30.7 °C

C[n+]1ccc(-c2c3nc(c(-c4cc[n+](C)cc4)c4ccc([nH]4)c(-c4cc[n+](C)cc4)c4ccc([nH]4)c(-c4cc[n+](C)cc4)c4nc2C=C4)C=C3)cc1 [TMPyP4, reference compound]
FRET stabilization temperature ΔTm (T-loop) [1]: 16.0 °C
